# According to patent publication US6737383B1, “Herbicidal oxadiazolidines” (priority 1999, dated 2004):
# Tests used:
# [1] = system: duck salad; assay: Test B flood test duck salad; assay type: in vivo, Heteranthera limosa
# Outline: (§1)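 Flood test on plants grown to the 2-leaf stage; treated plants kept in greenhouse twelve to sixteen days, then visually rated against controls on a 0 (no effect) to 10 (complete control) scale.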
# [2] = system: crabgrass; assay: Test B pre/postemergence crabgrass; assay type: in vivo, Digitaria sanguinalis
# Outline: (§2)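 Herbicidal effect was estimated by eye on a ten-point control scale after plants spent twelve to sixteen days in a greenhouse following soil or foliar treatment. Foliar sprays targeted plants at one to four leaves; all doses were formulated in a non-phytotoxic solvent with surfactant.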
# [3] = system: giant foxtail; assay: Test B pre/postemergence giant foxtail; assay type: in vivo, Setaria faberii
# Outline: as §2
# [4] = system: corn; assay: Test B pre/postemergence corn; assay type: in vivo, Zea mays
# Outline: as §2
# [5] = system: surinam grass; assay: Test B pre/postemergence surinam grass; assay type: in vivo, Brachiaria decumbens
# Outline: as §2
# [6] = system: bedstraw; assay: Test B pre/postemergence bedstraw; assay type: in vivo, Galium aparine
# Outline: as §2
# [7] = system: smallflower flatsedge; assay: Test B flood test smallflower flatsedge; assay type: in vivo, Cyperus difformis
# Outline: as §1
# [8] = system: cocklebur; assay: Test B pre/postemergence cocklebur; assay type: in vivo, Xanthium strumarium
# Outline: as §2
# [9] = system: velvetleaf; assay: Test B pre/postemergence velvetleaf; assay type: in vivo, Abutilon theophrasti
# Outline: as §2
# [10] = system: wheat; assay: Test B pre/postemergence wheat; assay type: in vivo, Triticum aestivum
# Outline: as §2
# [11] = system: bamyardgrass; assay: Test B flood test barnyardgrass; assay type: in vivo, Echinochloa crus-galli
# Outline: as §1
# [12] = system: morningglory; assay: Test B pre/postemergence morningglory; assay type: in vivo, Ipomoea hederacea
# Outline: as §2
# [13] = system: soybean; assay: Test B pre/postemergence soybean; assay type: in vivo, Glycine max
# Outline: as §2
# [14] = system: wild oat; assay: Test B pre/postemergence wild oat; assay type: in vivo, Avena fatua
# Outline: as §2
# [15] = system: blackgrass; assay: Test B pre/postemergence blackgrass; assay type: in vivo, Alopecurus myosuroides
# Outline: as §2
# [16] = system: rape; assay: Test B pre/postemergence rape; assay type: in vivo, Brassica napus
# Outline: as §2
# [17] = Rate 62 g/ha, flood test species, Pre-emergence, visual evaluation after twelve to sixteen days
# [18] = Rate 125 g/ha, under heading Pre-emergence, flood test species, visual evaluation after twelve to sixteen days
# [19] = Rate 250 g/ha, Pre-emergence (flood test species), scale 0 to 10, 0 is no effect, 10 is complete control
# [20] = Rate 500 g/ha, Pre-emergence section of Table B, 0 to 10 scale (0 no effect, 10 complete control)
# [21] = Postemergence, Rate 62 g/ha, scale 0 to 10, 0 is no effect, 10 is complete control
# [22] = Postemergence, Rate 125 g/ha, scale of 0 to 10 where 0 is no effect and 10 is complete control
# [23] = Postemergence, Rate 250 g/ha, scale of 0 to 10, 0 is no effect, 10 is complete control
# [24] = Postemergence, Rate 500 g/ha, scale of 0 to 10 where 0 is no effect and 10 is complete control
# [25] = Preemergence, Rate 62 g/ha, scale 0 to 10 (0 no effect, 10 complete control)
# [26] = Preemergence, Rate 125 g/ha, scale of 0 to 10 where 0 is no effect and 10 is complete control
# [27] = Preemergence, Rate 250 g/ha, scale 0 to 10 (0 no effect, 10 complete control)
# [28] = Preemergence, Rate 500 g/ha, scale of 0 to 10 where 0 is no effect and 10 is complete control
compound,measurement,setting,value
CCOC(Cn1c(=O)on(C(=O)N(c2ccc(F)cc2)C(C)C)c1=O)OCC [Compound 629],"Plant response rating, Ducksalad (0 to 10 scale, 0 is no effect, 10 is complete control)",[1]; [17],0
same,"Ducksalad plant response rating (0 to 10 scale, 0 is no effect, 10 is complete control)",[1]; [18],0
same,Ducksalad plant response rating,[1]; [19],0
same,Ducksalad plant response rating,[1]; [20],0
same,"Plant response rating, Crabgrass",[2]; [21],1
same,"Plant response rating, Crabgrass",[2]; [22],3
same,Crabgrass plant response rating,[2]; [23],8
same,"Plant response rating, Crabgrass",[2]; [24],9
same,Crabgrass plant response rating,[2]; [25],7
same,Crabgrass plant response rating,[2]; [26],9
same,"Plant response rating, Crabgrass",[2]; [27],9
same,"Plant response rating, Crabgrass",[2]; [28],10
same,"Plant response rating, Giant foxtail",[3]; [21],3
same,"Plant response rating, Giant foxtail",[3]; [22],8
same,Giant foxtail plant response rating,[3]; [23],9
same,"Plant response rating, Giant foxtail",[3]; [24],9
same,Giant foxtail plant response rating,[3]; [25],8
same,Giant foxtail plant response rating,[3]; [26],10
same,"Plant response rating, Giant foxtail",[3]; [27],10
same,"Plant response rating, Giant foxtail",[3]; [28],10
same,"Plant response rating, Corn",[4]; [21],3
same,"Plant response rating, Corn",[4]; [22],3
same,Corn plant response rating,[4]; [23],4
same,"Plant response rating, Corn",[4]; [24],6
same,Corn plant response rating,[4]; [25],1
same,Corn plant response rating,[4]; [26],2
same,"Plant response rating, Corn",[4]; [27],6
same,"Plant response rating, Corn",[4]; [28],8
same,"Plant response rating, B. signalgrass",[5]; [21],0
same,"Plant response rating, B. signalgrass",[5]; [22],1
same,B. signalgrass plant response rating,[5]; [23],3
same,"Plant response rating, B. signalgrass",[5]; [24],7
same,B. signalgrass plant response rating,[5]; [25],0
same,B. signalgrass plant response rating,[5]; [26],2
same,"Plant response rating, B. signalgrass",[5]; [27],5
same,"Plant response rating, B. signalgrass",[5]; [28],8
same,"Plant response rating, Bedstraw",[6]; [21],3
same,"Plant response rating, Bedstraw",[6]; [22],5
same,Bedstraw plant response rating,[6]; [23],8
same,Bedstraw plant response rating,[6]; [25],0
same,Bedstraw plant response rating,[6]; [26],0
same,"Plant response rating, Bedstraw",[6]; [27],3
same,"Plant response rating, Bedstraw",[6]; [28],8
same,"Plant response rating, S. Flatsedge (0 to 10 scale, 0 is no effect, 10 is complete control)",[7]; [17],0
same,"S. Flatsedge plant response rating (0 to 10 scale, 0 is no effect, 10 is complete control)",[7]; [18],0
same,S. Flatsedge plant response rating,[7]; [19],0
same,S. Flatsedge plant response rating,[7]; [20],0
same,"Plant response rating, Cocklebur",[8]; [21],0
same,"Plant response rating, Cocklebur",[8]; [22],0
same,Cocklebur plant response rating,[8]; [23],0
same,"Plant response rating, Cocklebur",[8]; [24],2
same,Cocklebur plant response rating,[8]; [25],0
same,Cocklebur plant response rating,[8]; [26],0
same,"Plant response rating, Cocklebur",[8]; [27],3
same,"Plant response rating, Cocklebur",[8]; [28],7
same,"Plant response rating, Velvetleaf",[9]; [21],0
same,"Plant response rating, Velvetleaf",[9]; [22],5
same,Velvetleaf plant response rating,[9]; [23],5
same,Velvetleaf plant response rating,[9]; [25],3
same,Velvetleaf plant response rating,[9]; [26],6
same,"Plant response rating, Velvetleaf",[9]; [27],6
same,"Plant response rating, Velvetleaf",[9]; [28],8
same,"Plant response rating, Wheat",[10]; [21],0
same,"Plant response rating, Wheat",[10]; [22],0
same,Wheat plant response rating,[10]; [23],0
same,Wheat plant response rating,[10]; [25],0
same,Wheat plant response rating,[10]; [26],0
same,"Plant response rating, Wheat",[10]; [27],3
same,"Plant response rating, Wheat",[10]; [28],3
same,"Plant response rating, Barnyardgrass (0 to 10 scale, 0 is no effect, 10 is complete control)",[11]; [17],0
same,"Barnyardgrass plant response rating (0 to 10 scale, 0 is no effect, 10 is complete control)",[11]; [18],0
same,Barnyardgrass plant response rating,[11]; [19],0
same,Barnyardgrass plant response rating,[11]; [20],0
same,"Plant response rating, Morningglory",[12]; [21],2
same,"Plant response rating, Morningglory",[12]; [22],2
same,Morningglory plant response rating,[12]; [23],3
same,"Plant response rating, Morningglory",[12]; [24],3
same,Morningglory plant response rating,[12]; [25],0
same,Morningglory plant response rating,[12]; [26],0
same,"Plant response rating, Morningglory",[12]; [27],0
same,"Plant response rating, Morningglory",[12]; [28],4
same,"Plant response rating, Soybean",[13]; [21],4
same,"Plant response rating, Soybean",[13]; [22],6
same,Soybean plant response rating,[13]; [23],7
same,Soybean plant response rating,[13]; [25],0
same,Soybean plant response rating,[13]; [26],0
same,"Plant response rating, Soybean",[13]; [27],0
same,"Plant response rating, Soybean",[13]; [28],0
same,"Plant response rating, Wild oats",[14]; [21],0
same,"Plant response rating, Wild oats",[14]; [22],0
same,Wild oats plant response rating,[14]; [25],0
same,Wild oats plant response rating,[14]; [26],0
same,"Plant response rating, Wild oats",[14]; [27],9
same,"Plant response rating, Wild oats",[14]; [28],9
same,"Plant response rating, Blackgrass",[15]; [21],3
same,"Plant response rating, Blackgrass",[15]; [22],8
same,Blackgrass plant response rating,[15]; [23],8
same,"Plant response rating, Blackgrass",[15]; [24],8
same,Blackgrass plant response rating,[15]; [25],4
same,Blackgrass plant response rating,[15]; [26],8
same,"Plant response rating, Blackgrass",[15]; [27],8
same,"Plant response rating, Blackgrass",[15]; [28],10
same,"Plant response rating, Rape",[16]; [21],0
same,"Plant response rating, Rape",[16]; [22],0
same,Rape plant response rating,[16]; [23],0
same,"Plant response rating, Rape",[16]; [24],3
same,Rape plant response rating,[16]; [25],0
same,Rape plant response rating,[16]; [26],0
same,"Plant response rating, Rape",[16]; [27],4
same,"Plant response rating, Rape",[16]; [28],9
